Several values for one entry are separate records, joined by “and”; a condition that tells them apart may be missing. Equal entries are not always repeated. Inconclusive results and toxic doses are left out.
Test system: P388 leukemia ip, CD2F1 mice, survival T/C
Test: NCI In Vivo Anticancer Drug Screen. Data for tumor model P388 Leukemia (intraperitoneal) in CD2F1 (CDF1) mice
Settings: endpoint: median survival time, higher = longer survival
In short: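 Mice carrying the transplanted tumor received test compound or vehicle. Survival was recorded in each group, and the value is the treated-group measurement divided by that of the vehicle-treated control group.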

With `CN(Cc1cnc2nc(N)nc(N)c2n1)c1ccc(C(=O)N[C@@H](CCC(=O)O)C(=O)O)cc1` the T/C (dose: 3.5 mg/kg/injection, schedule: Q01DX006 (ip), vehicle: sodium bicarbonate) was 187 % of control, the T/C (dose: 4.0 mg/kg/injection, schedule: Q01DX005 (iv), vehicle: sodium bicarbonate) was 190 % of control and the T/C (dose: 4.32 mg/kg/injection, schedule: Q04DX003 (ip), vehicle: sodium bicarbonate) was 171 % of control. The T/C (dose: 4.5 mg/kg/injection, schedule: Q04DX003 (ip), vehicle: sodium bicarbonate) was 174 % of control, the T/C (dose: 4.6 mg/kg/injection, schedule: Q04DX003 (ip), vehicle: saline) was 204 % of control and the T/C (dose: 5.0 mg/kg/injection, schedule: Q04DX003 (ip), vehicle: sodium bicarbonate) was 189 % of control. For the same compound, the T/C (dose: 5.18 mg/kg/injection, schedule: Q04DX003 (ip), vehicle: sodium bicarbonate) was 180 % of control, the T/C (dose: 6.48 mg/kg/injection, schedule: Q04DX003 (ip), vehicle: sodium bicarbonate) was 182 % of control and the T/C (dose: 7.2 mg/kg/injection, schedule: Q04DX003 (ip), vehicle: sodium bicarbonate) was 199 % of control. The T/C (dose: 7.78 mg/kg/injection, schedule: Q04DX002 (ip), vehicle: sodium bicarbonate) was 171 % of control, the T/C (dose: 8.64 mg/kg/injection, schedule: Q04DX003 (ip), vehicle: sodium bicarbonate) was 201 % of control and the T/C (dose: 9.0 mg/kg/injection, schedule: Q04DX003 (ip), vehicle: sodium bicarbonate) was 116 % of control. For the same compound, the T/C (dose: 9.0 mg/kg/injection, schedule: Q04DX003 (iv), vehicle: sodium bicarbonate) was 174 % of control, the T/C (dose: 9.72 mg/kg/injection, schedule: Q04DX002 (ip), vehicle: sodium bicarbonate) was 175 % of control and the T/C (dose: 10.0 mg/kg/injection, schedule: Q04DX004 (ip), vehicle: sodium bicarbonate) was 189 % of control. For the same compound, the T/C (dose: 10.8 mg/kg/injection, schedule: Q04DX003 (ip), vehicle: sodium bicarbonate) was 202 % of control, the T/C (dose: 13.0 mg/kg/injection, schedule: Q04DX002 (ip), vehicle: sodium bicarbonate) was 165 % of control and the T/C (dose: 14.4 mg/kg/injection, schedule: Q04DX003 (ip), vehicle: sodium bicarbonate) was 181 % of control. For the same compound, the T/C (dose: 15.0 mg/kg/injection, schedule: Q04DX003 (ip), vehicle: sodium bicarbonate) was 117 % of control, the T/C (dose: 16.2 mg/kg/injection, schedule: Q04DX002 (ip), vehicle: sodium bicarbonate) was 195 % of control and the T/C (dose: 18.0 mg/kg/injection, schedule: Q01DX001 (ip), vehicle: sodium bicarbonate) was 173 % of control. The T/C (dose: 18.0 mg/kg/injection, schedule: Q04DX003 (ip), vehicle: sodium bicarbonate) was 114 % of control, the T/C (dose: 18.0 mg/kg/injection, schedule: Q04DX003 (iv), vehicle: sodium bicarbonate) was 194 % of control and the T/C (dose: 18.4 mg/kg/injection, schedule: Q04DX003 (ip), vehicle: saline) was 177 % of control. The T/C (dose: 20.0 mg/kg/injection, schedule: Q04DX004 (ip), vehicle: sodium bicarbonate) was 189 % of control, the T/C (dose: 21.6 mg/kg/injection, schedule: Q04DX002 (ip), vehicle: sodium bicarbonate) was 191 % of control and the T/C (dose: 25.0 mg/kg/injection, schedule: Q04DX002 (ip), vehicle: sodium bicarbonate) was 115 % of control. The T/C (dose: 25.0 mg/kg/injection, schedule: Q04DX004 (ip), vehicle: sodium bicarbonate) was 180 % of control, the T/C (dose: 27.0 mg/kg/injection, schedule: Q04DX002 (ip), vehicle: sodium bicarbonate) was 201 % of control and the T/C (dose: 33.3 mg/kg/injection, schedule: Q01DX001 (ip), vehicle: sodium bicarbonate) was 109 % of control. The T/C (dose: 36.0 mg/kg/injection, schedule: Q01DX001 (ip), vehicle: sodium bicarbonate) was 150 % of control, the T/C (dose: 36.0 mg/kg/injection, schedule: Q01DX001 (iv), vehicle: sodium bicarbonate) was 156 % of control and the T/C (dose: 36.0 mg/kg/injection, schedule: Q04DX003 (iv), vehicle: sodium bicarbonate) was 124 % of control. For the same compound, the T/C (dose: 40.0 mg/kg/injection, schedule: Q01DX001 (ip), vehicle: sodium bicarbonate) was 150 % of control, the T/C (dose: 42.0 mg/kg/injection, schedule: Q04DX002 (ip), vehicle: sodium bicarbonate) was 105 % of control and the T/C (dose: 45.0 mg/kg/injection, schedule: Q04DX002 (ip), vehicle: sodium bicarbonate) was 200 % of control. The T/C (dose: 50.0 mg/kg/injection, schedule: Q04DX003 (ip), vehicle: sodium bicarbonate) was 111 % of control, the T/C (dose: 72.0 mg/kg/injection, schedule: Q01DX001 (iv), vehicle: sodium bicarbonate) was 161 % of control and the T/C (dose: 100.0 mg/kg/injection, schedule: Q01DX001 (ip), vehicle: sodium bicarbonate) was 158 % of control and 161 % of control. The T/C (dose: 125.0 mg/kg/injection, schedule: Q01DX001 (ip), vehicle: sodium bicarbonate) was 166 % of control, the T/C (dose: 150.0 mg/kg/injection, schedule: Q01DX001 (ip), vehicle: sodium bicarbonate) was 158 % of control and the T/C (dose: 200.0 mg/kg/injection, schedule: Q01DX001 (ip), vehicle: sodium bicarbonate) was 170 % of control. The T/C (dose: 400.0 mg/kg/injection, schedule: Q01DX001 (ip), vehicle: sodium bicarbonate) was 181 % of control.
